Patent US20250376441A1, “NOVEL COMPOUND AND PHARMACEUTICAL COMPOSITION COMPRISING SAME AS ACTIVE INGREDIENT” (Industry-Academic Cooperation Foundation, Yonsei University, priority 2017, published 2025)

What was measured:
[1] = system: Salmonella typhimurium TA100
Method: (§1) For each strain, treatment with a single concentration of 200 μg/plate was performed in triplicate and mutation was checked.

[2] = system: amyloid-beta peptide1-42 degenerative neurological disease-induced mice; assay: Morris water maze test; format: in vivo, ICR mice; conditions: donepezil group
Excerpt: Six-week-old ICR mice (male) were purchased, and then examined for general health for 6 days while subjecting them to quarantine and acclimation under an environment of animal breeding room. Then, healthy individuals were selected and used for the experiment. Identification of each individual was made by marking the number of each individual on the tail using a permanent marker, and identification of a breeding box was made by attaching an individual identification card on which test number, test substance name, test item, date of acquisition, acclimation period, date of grouping, test period, sex/animal number, and person in charge are indicated.
(§2) In order to induce a degenerative neurological disease, the experimental animals of Preparatory Example 1 were anesthetized by inhalation with 2.5% isoflurane. Then, 1 μg of amyloid-beta peptide1-42, a degenerative neurological disease-inducing substance, was administered to the animals at both hippocampal positions (AP: −2.3, L: ±2.0, H: −1.5) using a stereotaxic apparatus. […] For the administration, 1 μl was injected, at a flow rate of 0.2 μl/min, with a […] gas-tight glass syringe (Hamilton, Reno, NV, USA) using a perfusion pump (Pump 22, Harvard Apparatus, South Natick, MA, USA). Subsequently, the syringe was allowed to stand for 5 minutes and then removed.
(§3) Then, a degenerative neurological disease was induced as in Preparation Example 2.
After induction of the degenerative neurological disease, the following test was conducted after a one-day recovery period passed.
(§4) A circular pool (diameter: 120 cm, height: 75 cm) was filled with water to a depth of 25±1 cm as in FIG. 4, and a 24 cm platform was prepared by hiding it 1 cm below the water surface. Space cues were installed on the four sides of the wall so that the aminals can identify locations, and skimmed milk powder was dissolved into water so that the animals cannot identify the platform with naked eyes. One day before the experiment, all the experimental animals were allowed to swim freely for 1 minute in a water bath having no platform, so that the animals can adapt to the swimming situation. After that, a test group was allowed to start, in any order, from two of the three quadrants except the quadrant where the platform was placed, and allowed to find the platform for 60 seconds. In a case where an animal finds the platform, the animal was allowed to stay thereon for 20 seconds. […] As soon as end of the position learning time, which is the 20-second staying time, the animal was allowed to start again from any quadrant, and the time and distance to reach the platform were measured. The procedure was performed four times a day, and all procedures were taken with a camera and analyzed with a video tracking system (Panlab, USA). Probe trials were made on the fifth day after the four-day experiment in toal was completed. The test group was allowed to swim freely for 90 seconds without the platform, thereby performing evaluation on whether the test group holds a memory of the platform location. The results are illustrated in FIGS. 5 to 7.

[3] = system: amyloid-beta peptide1-42 degenerative neurological disease-induced mice; assay: Probe test (Morris water maze, platform removed); format: in vivo, ICR mice; conditions: donepezil group, 90 seconds without platform, p<0.01 vs beta-amyloid group
Method: as §2, §3, §4
The results are illustrated in FIGS. 8 and 9.

[4] = target: AMP-activated protein kinase (AMPK); assay: AMPK kinase assay (luminescence, purified enzyme, ATP, substrate peptide); format: biochemical; conditions: AMPK activation
Method: In order to identify an effect of the Preparation Example 6 having the highest docking score in Experimental Example 1 on activity of the AMP-activated protein kinase (AMPK), a kinase assay was performed. The kinase assay was performed as follows. […] Then, purified AMP-activated protein kinase and ATP were allowed to react on a substrate peptide for the AMP-activated protein kinase, and degrees of luminescence thereof were shown as EC50 in Table 3 and FIG. 3.

[5] = system: Salmonella typhimurium TA98; assay: Ames reverse mutation test, TA98
Method: as §1

Half-life test = assay: Half-life test
Excerpt: In order to identify whether the Preparation Example 6 according to the present invention can be orally administered, a half-life of the compound was checked. […] The results are illustrated in FIG. 18.

For `[N-]=[N+]=[N-]` [Sodium azide, sodium azide, reference compound], the “Reverse mutation [factor] w/o S-9 mix” value ([1]; TA100, without S-9, factor versus control) was “[5.5]” and the “Reverse mutation/dish (mean ± SD) w/o S-9 mix” value ([1]; TA100, without S-9, Preparation Example 6 at 200 μg/plate, Sodium azide concentration 1) was 618 ± 13.

With `COc1cc2c(cc1OC)C(=O)C(CC1CCN(Cc3ccccc3)CC1)C2` (stereo not drawn) [donepezil, reference compound] the “maximum time to find the platform (escape latency)” value [2] was 111.99 (±22.59) seconds, the “minimum time to find the platform (escape latency)” value [2] was 30.82 (±13.96) seconds and the “swimming time in the target quadrant” value [3] was 39.04 (±8.68) seconds.

Compound `NC(=O)c1ncn([C@@H]2O[C@H](CO)[C@@H](O)[C@H]2O)c1N` [AICAR, reference compound] has an EC50 [4] of 299 nM.

With `O=[N+]([O-])c1ccc2c(c1)Cc1ccccc1-2` [2-Nitrofluorene, 2-nitrofluorene, reference compound] the “Reverse mutation [factor] w/o S-9 mix” value ([5]; TA98, without S-9, factor versus control) was 915.0] and the “Reverse mutation/dish (mean ± SD) w/o S-9 mix” value ([5]; TA98, without S-9, Preparation Example 6 at 200 μg/plate, 2-Nitrofluorene concentration 2) was 290 ± 8.

`Oc1ccc(C=Cc2cc(O)cc(O)c2)cc1` [Resveratrol, reference compound] showed a half-life (Half-life test) of 8 to 10 min.
